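These data come from cells grown in 96-well plates and exposed to compound for 48 hours at five concentrations. GI50 = concentration required for 50% inhibition of growth. TGI is the concentration that stops growth completely.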
Columns and labels:
Assay in all cases: NCI tumour cell line growth inhibition, 48 h
NCI-H23 lung = test system: NCI-H23 lung
HCC-2998 colon = test system: HCC-2998 colon
SW-620 colon = test system: SW-620 colon
SK-MEL-5 melanoma = test system: SK-MEL-5 melanoma
T-47D breast = test system: T-47D breast
A549 NSCLC = test system: A549 NSCLC
EKVX NSCLC = test system: EKVX NSCLC
NCI-H522 lung = test system: NCI-H522 lung
NCI/ADR-RES ovarian = test system: NCI/ADR-RES ovarian
SNB-19 CNS = test system: SNB-19 CNS

Row | SMILES | TGI (NCI-H23 lung) | TGI (HCC-2998 colon) | TGI (SW-620 colon) | TGI (SK-MEL-5 melanoma) | TGI (T-47D breast) | TGI (A549 NSCLC) | TGI (EKVX NSCLC) | TGI (NCI-H522 lung) | TGI (NCI/ADR-RES ovarian) | TGI (SNB-19 CNS) | GI50 (NCI-H23 lung) | GI50 (HCC-2998 colon) | GI50 (SW-620 colon) | GI50 (SK-MEL-5 melanoma) | GI50 (T-47D breast) | GI50 (A549 NSCLC) | GI50 (EKVX NSCLC) | GI50 (NCI-H522 lung) | GI50 (NCI/ADR-RES ovarian) | GI50 (SNB-19 CNS)
1 | COc1ccc(/C=N/Nc2[nH]c(=S)nc3[nH]ncc23)cc1 | > 100 µM | > 100 µM | > 100 µM | > 100 µM | 44.2 µM | > 100 µM | > 100 µM | 79.9 µM | > 100 µM | 59.2 µM | – | – | – | – | – | – | – | – | – | –
2 | COc1cc(N=Nc2cccc(S(=O)(=O)O)c2)c(C)cc1N=Nc1ccc(/C=C/c2ccc(N=[N+]([O-])c3ccc(/C=C/c4ccc(N=Nc5cc(C)c(N=Nc6cccc(S(=O)(=O)O)c6)cc5OC)cc4)c(S(=O)(=O)O)c3)cc2S(=O)(=O)O)cc1 | > 100 µM | > 100 µM | > 100 µM | > 100 µM | – | > 100 µM | > 100 µM | > 100 µM | > 100 µM | > 100 µM | – | – | – | – | – | – | – | – | – | –
3 | Cc1ncc([N+](=O)[O-])n1CCN=[N+]=[N-] | > 100 µM | – | > 100 µM | > 100 µM | > 100 µM | > 100 µM | > 100 µM | > 100 µM | > 100 µM | > 100 µM | – | – | – | – | – | – | – | – | – | –
4 | COc1ccccc1C1C(C#N)=C(N)OC2=C1C(=O)CCC2 (configuration not stated) | > 100 µM | > 100 µM | > 100 µM | > 100 µM | > 100 µM | > 100 µM | > 100 µM | > 100 µM | > 100 µM | > 100 µM | > 100 µM | > 100 µM | > 100 µM | > 100 µM | > 100 µM | > 100 µM | > 100 µM | > 100 µM | > 100 µM | > 100 µM
5 | COc1cc(C2C(Cl)C(=O)N2c2ccc(Br)cc2)cc(I)c1O (configuration not stated) | > 100 µM | – | > 100 µM | > 100 µM | > 100 µM | > 100 µM | > 100 µM | > 100 µM | > 100 µM | > 100 µM | – | – | – | – | – | – | – | – | – | –
6 | O=S1(=O)NNC(=NCc2ccc(F)cc2)c2ccccc21 | > 100 µM | > 100 µM | > 100 µM | > 100 µM | > 100 µM | > 100 µM | > 100 µM | – | > 100 µM | > 100 µM | – | – | – | – | – | – | – | – | – | –
7 | NC(N)=N/N=C(\c1ccc(Cl)cc1)C1CC1 | 73.1 µM | 19.4 µM | 35.2 µM | 29 µM | 64.4 µM | > 100 µM | 83 µM | 31.3 µM | 61.2 µM | > 100 µM | – | – | – | – | – | – | – | – | – | –
8 | C=C1C(=O)O[C@H]2C1[C@H](OC(=O)/C(C)=C\COC(C)=O)C[C@]1(CO1)[C@@H]1[C@H](O)[C@H]3O[C@@]3(C)[C@@H]12 (some centres not stated) | 29.7 µM | 22.2 µM | 30.8 µM | 37.8 µM | – | > 100 µM | 57.3 µM | 22.8 µM | 54.7 µM | > 100 µM | – | – | – | – | – | – | – | – | – | –
9 | COc1ccc(CNc2nc(NCc3ccc(OC)cc3)nc(NC3CCCCC3)n2)cc1 | – | 3.74 µM | > 100 µM | > 100 µM | > 100 µM | 5.31 µM | 8.5 µM | 3.39 µM | 5.36 µM | 5.96 µM | – | – | – | – | – | – | – | – | – | –
10 | COc1cc(S(=O)(=O)Nc2nc(-c3ccc(N4C(=O)/C(=C/c5ccccc5)N=C4c4ccccc4)cc3)cs2)ccc1Cl | 80.4 µM | – | > 100 µM | > 100 µM | > 100 µM | > 100 µM | – | > 100 µM | > 100 µM | > 100 µM | – | – | – | – | – | – | – | – | – | –

Reference: PubChem BioAssay (NCI)
